Here are results for four compounds from ChEMBL document CHEMBL1201862, “PubChem BioAssay data set” (2004).

Common to all, as to assay: NCI anticancer screen, dose series, 48 h
Test [1] relates to U-251.
Test [2] deals with COLO 205.
Test [3] has as its system UACC-257.
Test [4] deals with HOP-62.
For test [5], the system named is DU-145.
In test [6] the test system is Malme-3M.
Test [7] concerns T47D.
The test system of test [8] is NCI/ADR-RES.
The subject of test [9] is SK-MEL-28.
Test [10] has as its system LOX IMVI.
Test [11] deals with CCRF-CEM.
Test [12] deals with CAKI-1.
For test [13], the system named is HL-60.
The subject of test [14] is TK-10.
The test system of test [15] is K562.
Test [16] concerns MDA-N.
Test [17] concerns SK-MEL-2.
For test [18], the system named is RPMI-8226.
For test [19], the system named is HCT-15.

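Method: 48-hour compound exposure of cells in 96-well plates, five concentrations, linear interpolation of endpoints. GI50: concentration for 50% inhibition of growth.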 Active and inactive are the calls of the source. No stated cut-off is given here; in the data, active = GI50 up to about 1.1 µM and inactive = higher.

With `COc1ccccc1C1(c2c(OC)c(=O)c2=O)SCCCS1`, the GI50 in test [1] is > 100 µM (inactive); in [2], > 100 µM (inactive); in [3] it was 85.1 µM (inactive); in test [4], > 100 µM (inactive); in [5] it was > 100 µM (inactive); in test [6] it was 62.5 µM (inactive). The GI50 in [7] was 73.8 µM (inactive); in test [8], 73.6 µM (inactive); in test [9], > 100 µM (inactive); in test [10], 60.3 µM (inactive); in test [11], 82.6 µM (inactive); in [12], > 100 µM (inactive). The GI50 in test [13] was > 100 µM (inactive); in [14] it was > 100 µM (inactive); in [15], > 100 µM (inactive); in test [16] it was > 100 µM (inactive); in test [17], > 100 µM (inactive); in test [18], 32 µM (inactive). This compound also showed a GI50 in [19] of 61 µM.
Turning to `COc1cc(C=O)cc(/C=N/c2ccccn2)c1O`, the GI50 in test [1] is 13 µM (inactive); in test [2], 7.08 µM (inactive); in [3] it was 8.59 µM (inactive); in test [4] it was 16 µM (inactive); in test [5], > 100 µM (inactive); in test [6], 2.47 µM (inactive). Besides, the GI50 in test [7] is 53.3 µM (inactive); in test [8], 10.8 µM (inactive); in test [9] it was 3.32 µM (inactive); in test [10], 14.1 µM (inactive); in [11] it was 4.67 µM (inactive); in [12] it was 2.94 µM (inactive). Moreover, the GI50 was 33.4 µM (inactive) in [13]; 79.4 µM (inactive) in test [14]; 61.1 µM (inactive) in [15]; 7.23 µM (inactive) in test [16]; 2.57 µM (inactive) in [17]; 4.85 µM (inactive) in [18]. In [19], this compound gave a GI50 of 29 µM.
Turning to `CCOC(=O)/C=C(\C(=O)OCC)n1ccc(N)nc1=O`, the GI50 is 72.3 µM (inactive) in test [1]; > 100 µM (inactive) in [2]; > 100 µM (inactive) in test [3]; > 100 µM (inactive) in test [4]; > 100 µM (inactive) in test [5]; 45.7 µM (inactive) in test [6]. For the same compound, the GI50 was > 100 µM (inactive) in test [7]; > 100 µM (inactive) in [8]; 1.34 µM (inactive) in test [9]; 88.7 µM (inactive) in [10]; 22.4 µM (inactive) in test [11]; 37.7 µM (inactive) in test [12]. In addition, the GI50 was 26.6 µM (inactive) in test [13]; > 100 µM (inactive) in test [14]; 67.9 µM (inactive) in [15]; > 100 µM (inactive) in test [16]; > 100 µM (inactive) in test [17]; > 100 µM (inactive) in [18]. This compound also returned a GI50 in [19] of more than 100 µM.
On to `CC12OC(=O)[C@@]3(O)CCC4C(C[C@H]5O[C@]56CC=CC(=O)[C@]46C)C45OC[C@H]6C(=O)O[C@@H]1C[C@@]6(C)[C@H](C4=O)C23O5` (stereo partly specified), for which the GI50 is 1.99 µM (inactive) in test [1]; 0.601 µM (active) in [2]; 1.32 µM (inactive) in test [3]; 2.57 µM (inactive) in [4]; 2.56 µM (inactive) in test [5]; 1.36 µM (inactive) in [6]. Further, the GI50 in test [7] is 1.36 µM (inactive); in [8], 8.51 µM (inactive); in test [9], 0.394 µM (active); in [10], 1.63 µM (inactive); in [11], 0.233 µM (active); in test [12], 2.64 µM (inactive). The GI50 is 0.121 µM (active) in test [13]; 1 µM (active) in test [14]; 0.53 µM (active) in [15]; 3.4 µM (inactive) in test [16]; 3.01 µM (inactive) in [17]; 0.308 µM (active) in [18]. Besides, the GI50 in [19] was 0.977 µM.
